Measured values taken from patent publication US4652547A (Eli Lilly and Company, priority 1984, dated 1987).
Like-named read-outs stand apart in the source and are kept apart here.

How the values were obtained:
[1] = Method: (§1) J. Physiol. 237:E214-E223 (1979). With this technique, an antecubital vein is cannulated in an antegrade manner to administer the infusates. A dorsal hand vein is cannulated in a retrograde fashion and kept in a warming device (70° C.) to facilitate venous sampling and provide arterialized venous blood. After insertion of the catheters, [3--3H]-glucose is infused for at least 30 minutes before initiating the hormone infusion. At the onset of hormone infusion, a priming dose of either insulin or proinsulin is administered during the initial 10 minutes in a logarithmically decreasing manner to acutely raise the serum hormone level. The amount of insulin or proinsulin given during this initial 10 minute period is roughly twice that given during each subsequent 10 minute interval by a continuous hormone infusion. The serum glucose is maintained between 80 and 90 mg/dl throughout the study period with a coefficient of variation of less than 5% by means of a variable rate of infusion of 20% dextrose. The overall glucose disposal rate is assessed isotopically for each 20 minute interval of the study.
Each subject underwent a total of 8 euglycemic glucose clamp studies, each performed on a separate day. Insulin infusion rates of 15, 40, 120, and 240 mU/M2/min were utilized to construct a dose response curve for insulin action. With this approach an attempt was made to achieve steady state insulin concentrations of 40 to 800 μU/ml (Table 1). Each subject was also studied with four different proinsulin infusions. […] Hepatic glucose output was quantitated in the basal state and during each clamp study using a primed continuous infusion of [3--3H]glucose. […] The dose response relationship for insulin and proinsulinmediated suppression of hepatic glucose output was determined by calculating the percent suppression of basal hepatic glucose output at each steady state hormone concentration obtained during the euglycemic clamp studies.

hepatic glucose output = assay: Euglycemic glucose-clamp studies: suppression of hepatic glucose output; type: in vivo, human
Method: as §1, with “The amount of insulin or proinsulin given during this initial 10 minute period is roughly twice that given during each subsequent 10 minute interval by a continuous hormone infusion. The serum glucose is maintained between 80 and 90 mg/dl throughout the study period with a coefficient of variation of less than 5% by means of a variable rate of infusion of 20% dextrose.” left out
Each subject underwent a total of 8 euglycemic glucose clamp studies, each performed on a separate day. […] Hepatic glucose output was quantitated in the basal state and during each clamp study using a primed continuous infusion of [3--3H]glucose. […] The dose response relationship for insulin and proinsulinmediated suppression of hepatic glucose output was determined by calculating the percent suppression of basal hepatic glucose output at each steady state hormone concentration obtained during the euglycemic clamp studies.

glucose disposal = assay: Euglycemic glucose-clamp studies: glucose disposal; type: in vivo, human
Method: Ten healthy control subjects (five female and five male) ranging in age from 25-40 years (mean age=29±3 years) with mean relative body weights of 0.96+0.02 were used.
With this technique, an antecubital vein is cannulated in an antegrade manner to administer the infusates. A dorsal hand vein is cannulated in a retrograde fashion and kept in a warming device (70° C.) to facilitate venous sampling and provide arterialized venous blood. After insertion of the catheters, [3--3H]-glucose is infused for at least 30 minutes before initiating the hormone infusion. At the onset of hormone infusion, a priming dose of either insulin or proinsulin is administered during the initial 10 minutes in a logarithmically decreasing manner to acutely raise the serum hormone level. The amount of insulin or proinsulin given during this initial 10 minute period is roughly twice that given during each subsequent 10 minute interval by a continuous hormone infusion. […] The overall glucose disposal rate is assessed isotopically for each 20 minute interval of the study.
On one day, each subject received a 5.0 μg/M2/min (120 mU/M2/min) insulin infusion over a 6 hour period. […] Each proinsulin infusion was carried out for 300 minutes, with the quantitation of its biological effects based on measurements made during the 5th hour of each study. […]

[2] = remark: listed apart in the source
Source text: (§2) At this point, the hormone infusion was abruptly stopped, and the glucose concentration was maintained constant until the biologic effects of the infused hormone were no longer detectable.

[3] = system: peripheral glucose uptake; assay: Kinetics of activation and deactivation: peripheral glucose uptake; type: in vivo, human
Source text: Marked differences between the two hormones were noted when biologic activity was studied.
as §2

[4] = system: hepatic glucose output (HGO); assay: Kinetics of activation and deactivation: hepatic glucose output (HGO); type: in vivo, human
Source text: as §2

[5] = system: hepatic glucose production; assay: Subcutaneous administration to Type II subjects: hepatic glucose production; type: in vivo, human; details: 0.2 U/kg s.c.
[6] = Hormone activity used for dosing; details: basis for administered amounts
HGO = system: HGO
Source text: For example, in non-insulin dependent diabetes mellitus (NIDDM), one of the major metabolic abnormalities that maintains the resultant hyperglycemic state is accelerated hepatic glucose production.

[7] = 0.2 U/kg s.c., five Type II subjects
[8] = system: insulin-degrading proteases; details: proteases at subcutaneous injection site of certain diabetics
fat cells = details: e.g. fat cells; cited from earlier work
plasma glucose = assay: Response of fasting Type II diabetic patients: plasma glucose and hypoglycemia; details: 0.2 U/kg s.c.
[9] = Study A: insulin 15 mU/M^2/min, proinsulin 2.75 μg/M^2/min

Substance: human proinsulin
- Steady State Hormone Levels (Mean ± SEM) ([1]; infusion A: insulin 0.63 μg/M^2/min, proinsulin 2.75 μg/M^2/min): 2.55 ± 0.16 pmol/mL
- Steady State Hormone Levels (Mean ± SEM) ([1]; infusion B: insulin […]^2/min, proinsulin 7.5 μg/M^2/min): 6.24 ± 0.49 pmol/mL
- Steady State Hormone Levels (Mean ± SEM) ([1]; infusion C: insulin 5.0 μg/M^2/min, proinsulin 22.5 μg/M^2/min): 21.2 ± 1.4 pmol/mL
- Steady State Hormone Levels (Mean ± SEM) ([1]; infusion D: insulin 10.0 μg/M^2/min, proinsulin 45.0 μg/M^2/min): 40.0 ± 1.9 pmol/mL
- Suppression of Hepatic Glucose Output (Mean ± SE) (hepatic glucose output; [9]): 80 ± 6%
- Hormone concentration required to achieve 90% suppression of hepatic glucose output (hepatic glucose output; steady state serum concentration, euglycemic clamp): 3.35 pmol/mL
- Time to reach steady state rates of glucose disposal (glucose disposal; 5 subjects, insulin 5.0 μg/M2/min over 6 hours, proinsulin 22.5 μg/M2/min over 8 hours): ≤ 5 h
- Glucose Disposal Rate (Mean ± SE) (glucose disposal; [9]): 122 ± 11 mg/M^2/min
- t 1/2 of clearance from the circulation ([2]; after stopping 5 hour infusion (human insulin 0.55, human proinsulin 2.75 μg/M^2/min)): 0.333 h
- Time by which hormone concentrations are below biologically effective values ([2]; after stopping infusion): ≤ 90 minutes
- Initial volume of distribution compared to human insulin ([2]; primed continuous infusion): much greater
- Time to steady state hormone concentration ([2]; primed continuous infusion): 90 to 120 min
- Time of initial peak of hormone concentration ([2]; primed continuous infusion, all infusion rates): no initial peak of hormone concentration was observed
- t 1/2 of deactivation of effects on glucose disposal ([3]; after stopping 5 hour infusion): 1.45 ± 0.233 h
- Decay of effect to stimulate glucose disposal, times more slowly than human insulin ([3]; after stopping infusion): 2.2 times
- Time for glucose disposal rates to return to basal ([3]; following cessation of infusion): 160 min
- Time for effect to stimulate glucose disposal to reach steady state ([3]; hormone infusion): > 5 h
- t 1/2 of deactivation of effect to inhibit HGO ([4]; after stopping 5 hour infusion): 3.83 ± 0.317 h
- Time for HGO to return to baseline values, by extrapolation of the curve ([4]; after stopping infusion): > 6 h
- Time until decline in effect to suppress HGO could be detected ([4]; after stopping infusion): 120 min
- Effect on hepatic glucose production [5]: suppressed into the normal range
- Time of maximum suppression of hepatic glucose production [5]: 264 ± 31 min
- Minimum hepatic glucose production ([5]; basal 3.83±0.6): 1.21 ± 0.2 mg/kg/min
- Hormone activity [6]: 4 IU/mg
- Expected suppression of HGO (HGO; NIDDM subjects, circulating concentration approximately 1.5 2 pmol/ml): approximately 50%
- Expected duration of adequate glycemic control (HGO; sustained level of 1.5-2 pmol/ml for about 3 hours, CSII or single s.c. injection): 8 to 10 h
- Mean peak hormone blood level [7]: 6.8 pmol/mL
- Time of mean peak hormone blood level [7]: 230 ± 33 min
- Degradation by insulin-degrading proteases [8]: not degraded
- Internalization into target tissues (fat cells): internalized into target tissues
- Blood glucose level to which each subject was lowered (plasma glucose; five fasting Type II subjects): 80 to 110 mg/dL
- Plasma Glucose (plasma glucose; Mean of subjects (mean total dose 18.7 I.U.), 0 min after injection): 245 mg/dL
- Plasma Glucose (plasma glucose; Mean of subjects (mean total dose 18.7 I.U.), 40 min after injection): 235 mg/dL
- Plasma Glucose (plasma glucose; Mean of subjects (mean total dose 18.7 I.U.), 80 min after injection): 221 mg/dL
- Plasma Glucose (plasma glucose; Mean of subjects (mean total dose 18.7 I.U.), 120 min after injection): 205 mg/dL
- Plasma Glucose (plasma glucose; Mean of subjects (mean total dose 18.7 I.U.), 160 min after injection): 188 mg/dL
- Plasma Glucose (plasma glucose; Mean of subjects (mean total dose 18.7 I.U.), 200 min after injection): 167 mg/dL
- Plasma Glucose (plasma glucose; Mean of subjects (mean total dose 18.7 I.U.), 280 min after injection): 129 mg/dL
- Plasma Glucose (plasma glucose; Mean of subjects (mean total dose 18.7 I.U.), 300 min after injection): 113 mg/dL
- Plasma Glucose (plasma glucose; Mean of subjects (mean total dose 18.7 I.U.), 360 min after injection): 102 mg/dL
- Plasma Glucose (plasma glucose; Mean of subjects (mean total dose 18.7 I.U.), 400 min after injection): 95 mg/dL
- Plasma Glucose (plasma glucose; Mean of subjects (mean total dose 18.7 I.U.), 440 min after injection): 92 mg/dL
- Plasma Glucose (plasma glucose; Mean of subjects (mean total dose 18.7 I.U.), 480 min after injection): 96 mg/dL
- Plasma Glucose (plasma glucose; subject (total dose 15.0 I.U.), 0 min after injection): 332 mg/dL
- Plasma Glucose (plasma glucose; subject (total dose 15.0 I.U.), 40 min after injection): 328 mg/dL
- Plasma Glucose (plasma glucose; subject (total dose 15.0 I.U.), 80 min after injection): 308 mg/dL
- Plasma Glucose (plasma glucose; subject (total dose 15.0 I.U.), 120 min after injection): 288 mg/dL
- Plasma Glucose (plasma glucose; subject (total dose 15.0 I.U.), 160 min after injection): 272 mg/dL
- Plasma Glucose (plasma glucose; subject (total dose 15.0 I.U.), 200 min after injection): 247 mg/dL
- Plasma Glucose (plasma glucose; subject (total dose 15.0 I.U.), 240 min after injection): 210 mg/dL
- Plasma Glucose (plasma glucose; subject (total dose 15.0 I.U.), 280 min after injection): 174 mg/dL
- Plasma Glucose (plasma glucose; subject (total dose 15.0 I.U.), 360 min after injection): 94 mg/dL
- Plasma Glucose (plasma glucose; subject four (total dose 27.2 I.U.), 0 min after injection): 159 mg/dL
- Plasma Glucose (plasma glucose; subject four (total dose 27.2 I.U.), 40 min after injection): 144 mg/dL
- Plasma Glucose (plasma glucose; subject four (total dose 27.2 I.U.), 120 min after injection): 128 mg/dL
- Plasma Glucose (plasma glucose; subject four (total dose 27.2 I.U.), 200 min after injection): 110 mg/dL
- Plasma Glucose (plasma glucose; subject four (total dose 27.2 I.U.), 240 min after injection): 101 mg/dL
- Plasma Glucose (plasma glucose; subject four (total dose 27.2 I.U.), 280 min after injection): 98 mg/dL
- Plasma Glucose (plasma glucose; subject four (total dose 27.2 I.U.), 300 min after injection): 88 mg/dL
- Plasma Glucose (plasma glucose; subject four (total dose 27.2 I.U.), 360 min after injection): 84 mg/dL
- Plasma Glucose (plasma glucose; subject four (total dose 27.2 I.U.), 400 min after injection): 85 mg/dL
- Plasma Glucose (plasma glucose; subject four (total dose 27.2 I.U.), 440 min after injection): 86 mg/dL
- Plasma Glucose (plasma glucose; subject four (total dose 27.2 I.U.), 480 min after injection): 88 mg/dL
- Plasma Glucose (plasma glucose; subject one (total dose 14.8 I.U.), 0 min after injection): 213 mg/dL
- Plasma Glucose (plasma glucose; subject one (total dose 14.8 I.U.), 40 min after injection): 203 mg/dL
- Plasma Glucose (plasma glucose; subject one (total dose 14.8 I.U.), 80 min after injection): 187 mg/dL
- Plasma Glucose (plasma glucose; subject one (total dose 14.8 I.U.), 160 min after injection): 140 mg/dL
- Plasma Glucose (plasma glucose; subject one (total dose 14.8 I.U.), 240 min after injection): 81 mg/dL
- Plasma Glucose (plasma glucose; subject one (total dose 14.8 I.U.), 280 min after injection): 77 mg/dL
- Plasma Glucose (plasma glucose; subject one (total dose 14.8 I.U.), 300 min after injection): 80 mg/dL
- Plasma Glucose (plasma glucose; subject one (total dose 14.8 I.U.), 320 min after injection): 80 mg/dL
- Plasma Glucose (plasma glucose; subject three (total dose 16.3 I.U.), 0 min after injection): 290 mg/dL
- Plasma Glucose (plasma glucose; subject three (total dose 16.3 I.U.), 40 min after injection): 282 mg/dL
- Plasma Glucose (plasma glucose; subject three (total dose 16.3 I.U.), 80 min after injection): 272 mg/dL
- Plasma Glucose (plasma glucose; subject three (total dose 16.3 I.U.), 120 min after injection): 250 mg/dL
- Plasma Glucose (plasma glucose; subject three (total dose 16.3 I.U.), 160 min after injection): 230 mg/dL
- Plasma Glucose (plasma glucose; subject three (total dose 16.3 I.U.), 200 min after injection): 200 mg/dL
- Plasma Glucose (plasma glucose; subject three (total dose 16.3 I.U.), 240 min after injection): 183 mg/dL
- Plasma Glucose (plasma glucose; subject three (total dose 16.3 I.U.), 280 min after injection): 152 mg/dL
- Plasma Glucose (plasma glucose; subject three (total dose 16.3 I.U.), 300 min after injection): 127 mg/dL
- Plasma Glucose (plasma glucose; subject three (total dose 16.3 I.U.), 360 min after injection): 101 mg/dL
- Plasma Glucose (plasma glucose; subject three (total dose 16.3 I.U.), 400 min after injection): 82 mg/dL
- Plasma Glucose (plasma glucose; subject three (total dose 16.3 I.U.), 440 min after injection): 77 mg/dL
- Plasma Glucose (plasma glucose; subject two (total dose 20.0 I.U.), 0 min after injection): 231 mg/dL
- Plasma Glucose (plasma glucose; subject two (total dose 20.0 I.U.), 40 min after injection): 217 mg/dL
- Plasma Glucose (plasma glucose; subject two (total dose 20.0 I.U.), 80 min after injection): 201 mg/dL
- Plasma Glucose (plasma glucose; subject two (total dose 20.0 I.U.), 120 min after injection): 191 mg/dL
- Plasma Glucose (plasma glucose; subject two (total dose 20.0 I.U.), 160 min after injection): 182 mg/dL
- Plasma Glucose (plasma glucose; subject two (total dose 20.0 I.U.), 240 min after injection): 164 mg/dL
- Plasma Glucose (plasma glucose; subject two (total dose 20.0 I.U.), 280 min after injection): 143 mg/dL
- Plasma Glucose (plasma glucose; subject two (total dose 20.0 I.U.), 300 min after injection): 134 mg/dL
- Plasma Glucose (plasma glucose; subject two (total dose 20.0 I.U.), 360 min after injection): 128 mg/dL
- Plasma Glucose (plasma glucose; subject two (total dose 20.0 I.U.), 400 min after injection): 117 mg/dL
- Plasma Glucose (plasma glucose; subject two (total dose 20.0 I.U.), 440 min after injection): 112 mg/dL
- Plasma Glucose (plasma glucose; subject two (total dose 20.0 I.U.), 480 min after injection): 104 mg/dL
- Plasma Glucose (plasma glucose; subject two (total dose 20.0 I.U.), 500 min after injection): 100 mg/dL
